# According to patent US4416826A, “Peresters and use thereof” (priority 1980, dated 1983):
# Like-named read-outs stand apart in the source and are kept apart here.
# Columns and labels:
# Triplet energy = type: physicochemical
# [1] = Relative quantum yield of initiator decomposition in presence of monomer (IR at 1770 cm^-1); type: physicochemical; settings: benzene, initiator 2 × 10^-2 M
# Method: Commercial methyl methacrylate monomer is washed three times with 2% NaOH solution to remove stabilizer. It is then washed with distilled water three times, dried with molecular sieves, and distilled under vacuum before use. Polymerization solutions are prepared in cylindrical tubes which are degassed and sealed. The amount of polymer formed is determined by precipitating the polymer with an excess of methanol, washing with methanol, and filtering through fine sintered crucibles (previously weighed) followed by drying in a vacuum oven. The irradiation condition is the same as that in the decomposition rate example hereinabove.
# The irradiations are carried out in degassed (three cycles of freeze-thaw under high vacuum) sealed 15-mm Pyrex tubes. The tubes are placed in a merry-go-round with a filtered UV source of 366 nm at the center and the yield of polymer is measured (below 10% conversion) gravimetrically. In all of the cases, tubes of the same size and same volume of solution are used. Number-average molecular weights of the purified polymers are determined by viscometry in a benzene solution. […] The solution then is centrifuged and the IR of the centrifugate is measured to determine undecomposed perester. […] The light intensity is measured by benzophenone-benzhydrol actinometry and observed to be Io =6.56×10^17 quanta/min on the average. […]
# [2] = Photopolymerization of styrene, radical efficiency
# Method: (§1) Commercial styrene is washed three times with ice cold 2% NaOH solution followed by washing (four times) with distilled water. The styrene is dried over anhydrous CaCl2 and distilled under vacuum before use. The middle fraction of the distillate is used for polymerization. Solvents are purified by conventional means and distilled under N2 atmosphere.
# (§2) The irradiations are carried out in degassed (three cycles of freeze-thaw under high vacuum) sealed 15-mm Pyrex tubes. The tubes are placed in a merry-go-round with a filtered UV source of 366 nm at the center and the yield of polymer is measured (below 10% conversion) gravimetrically. In all of the cases, tubes of the same size and same volume of solution are used. Number-average molecular weights of the purified polymers are determined by viscometry in a benzene solution. After the polymerization, an aliquot of 0.5 ml from each reaction tube is placed in 2-ml volumetric flasks. The solvent and excess monomer are evaporated under high vacuum for several hours. The remaining flask contents are dissolved in 0.5 ml of benzene or chloroform and the polymer is precipitated by adding 0.5 ml of n-hexane. The solution then is centrifuged and the IR of the centrifugate is measured to determine undecomposed perester. All of the above procedures are carried out as far as possible in the dark. The light intensity is measured by benzophenone-benzhydrol actinometry and observed to be Io =6.56×10^17 quanta/min on the average. The temperature of the tubes is maintained at 30° C.
# The efficiency of the radicals to initiate polymerization, f, in the absence of any appreciable amount of chain transfer, can be defined as [formula] assuming bimolecular termination by the combination of two growing chains only [formula] whereas kd =rate of decomposition of perester in mol/liter sec. in the absence of monomer (a function of light intensity).
# [3] = Relative quantum yield of initiator decomposition in presence of monomer (IR at 1770 cm^-1); type: physicochemical; settings: for relative quantum yield φrel of decomposition: benzene, initiator 2 × 10^-2 M
# Method: as §1, §2
# The decomposition of the initiator employed is followed by IR at 1770 cm^-1 (caused by the carbonyl adjacent to the peroxy group) against an appropriate solvent blank. The initiators employed are .rho.-benzoylperoxybenzoic acid tert-butylester (Ia) and prior art benzophenone peroxide. In addition, the above procedure is repeated except that methyl methacrylate is employed in place of styrene. Table IX below illustrates the relative quantum yield for the decomposition of the initiators in the recited amounts of monomers, assuming that the quantum yield for the decomposition of the perester and peroxide in the absence of any monomer is one.
# [4] = End group analysis of polystyrene by IR
# Method: The polystyrene obtained from each of the above polymerizations is purified by repeated (four times) precipitation from benzene solution with methanol. Before each precipitation, the benzene solution is centrifuged to remove any insoluble material. The finely powdered polymer is filtered and dried under vacuum for two days. Known amounts of polymer are dissolved in benzene and the IR is taken (2000-1500 cm^-1) against benzene in 0.1-mm NaCl cells. The peaks at 1730 and 1670 cm^-1 for the carbonyl groups, caused by ester and benzophenones, respectively, are measured. […] The extinction coefficient of the carbonyl group at 1730 cm^-1 is compared with that of authenticated methyl benzoylbenzoate, which is used as a model to measure the concentration of the ester end groups in the polymer. From the concentration of the ester and the extinction resulting from the carbonyl group in the benzophenone, the absorption caused by the benzophenone that is present as the ester can be calculated. The value is subtracted from the absorption obtained at 1670 cm^- 1 for the polymer. From the resulting absorption, the concentration of benzophenone alone is estimated from the known extinction of benzophenone at that wavelength.
# [5] = benzene, [I] 0.31 × 10^-3 M, [M] 3.5 M
# [6] = benzene, [I] 0.63 × 10^-3 M, [M] 3.5 M
# [7] = benzene, [I] 1.15 × 10^-3 M, [M] 3.5 M
# [8] = benzene, [I] 2.52 × 10^-3 M, [M] 3.5 M
# [9] = benzene, [I] 5.03 × 10^-3 M, [M] 3.5 M
# [10] = benzene, [I] 8.05 × 10^-3 M, [M] 3.5 M
# [11] = benzene, [I] 10.0 × 10^-3 M, [M] 2.0 M
# [12] = benzene, [I] 10.0 × 10^-3 M, [M] 3.5 M
# [13] = benzene, [I] 10.0 × 10^-3 M, [M] 5.0 M
# [14] = chloroform, [I] 1.11 × 10^-3 M, [M] 4.33 M
# [15] = chloroform, [I] 2.28 × 10^-3 M, [M] 4.33 M
# [16] = chloroform, [I] 5.14 × 10^-3 M, [M] 4.33 M
# [17] = chloroform, [I] 9.92 × 10^-3 M, [M] 4.33 M
# [18] = Exp. 1: benzene, [I] 10 × 10^-3 M, styrene 2 M
# [19] = Exp. 2: benzene, [I] 10 × 10^-3 M, styrene 3.5 M
# [20] = Exp. 3: benzene, [I] 10 × 10^-3 M, styrene 5.0 M
# [21] = Exp. 4: benzene, [I] 10 × 10^-3 M, styrene 7.0 M
# [22] = Exp. 5: chloroform, [I] 5.0 × 10^-3 M, styrene 5.51 M
# [23] = Exp. 6: chloroform, [I] 5.0 × 10^-3 M, styrene 6.92 M
smiles,measurement,setting,value
"CC(C)(C)OOC(=O)c1ccc(C(=O)c2ccccc2)cc1 [Ia, t-Butyl-4-Benzoylperbenzoate]",triplet energy ET,Triplet energy,67.7 kcal/mol
same,relative quantum yield φrel of decomposition,[1]; methyl methacrylate 2.34 M,0.88
same,relative quantum yield φrel of decomposition,[1]; methyl methacrylate 4.68 M,0.80
same,"radical efficiency, in words",[2],approaches unity at low initiator concentrations
same,"kd, rate of decomposition of perester in the absence of monomer",[2]; Table X footnote,0.000512 mol/L/s
same,Average degree of polymerization,[2]; [5],320.4
same,Radical efficiency f,[2]; [5],0.92
same,Rp × 10^5,[2]; [5],0.65 mole/liter sec
same,φrel,[2]; [5],0.14
same,Average degree of polymerization,[2]; [6],166.7
same,Radical efficiency f,[2]; [6],1.21
same,Rp × 10^5,[2]; [6],0.92 mole/liter sec
same,φrel,[2]; [6],0.14
same,Average degree of polymerization,[2]; [7],155.5
same,Radical efficiency f,[2]; [7],1.00
same,Rp × 10^5,[2]; [7],1.29 mole/liter sec
same,φrel,[2]; [7],0.14
same,Average degree of polymerization,[2]; [8],102.8
same,Radical efficiency f,[2]; [8],0.79
same,Rp × 10^5,[2]; [8],1.47 mole/liter sec
same,φrel,[2]; [8],0.14
same,Average degree of polymerization,[2]; [9],85.7
same,Radical efficiency f,[2]; [9],0.56
same,Rp × 10^5,[2]; [9],1.72 mole/liter sec
same,φrel,[2]; [9],0.14
same,Average degree of polymerization,[2]; [10],77.2
same,Radical efficiency f,[2]; [10],0.41
same,Rp × 10^5,[2]; [10],1.83 mole/liter sec
same,φrel,[2]; [10],0.14
same,Average degree of polymerization,[2]; [11],48.0
same,Radical efficiency f,[2]; [11],0.16
same,Rp × 10^5,[2]; [11],0.95 mole/liter sec
same,φrel,[2]; [11],0.25
same,Average degree of polymerization,[2]; [12],137.2
same,Radical efficiency f,[2]; [12],0.15
same,Rp × 10^5,[2]; [12],1.50 mole/liter sec
same,φrel,[2]; [12],0.14
same,Average degree of polymerization,[2]; [13],219.2
same,Radical efficiency f,[2]; [13],0.16
same,Rp × 10^5,[2]; [13],2.08 mole/liter sec
same,φrel,[2]; [13],0.12
same,φrel,"[2]; chloroform, [I] 0.14 × 10^-3 M, [M] not given",1.32
same,Average degree of polymerization,[2]; [14],186.0
same,Radical efficiency f,[2]; [14],0.89
same,Rp × 10^5,[2]; [14],1.32 mole/liter sec
same,φrel,[2]; [14],0.14
same,Average degree of polymerization,[2]; [15],130.0
same,Radical efficiency f,[2]; [15],0.86
same,Rp × 10^5,[2]; [15],1.83 mole/liter sec
same,Average degree of polymerization,[2]; [16],102.9
same,Radical efficiency f,[2]; [16],0.37
same,Rp × 10^5,[2]; [16],2.01 mole/liter sec
same,Average degree of polymerization,[2]; [17],80.5
same,Radical efficiency f,[2]; [17],0.40
same,Rp × 10^5,[2]; [17],2.29 mole/liter sec
same,"rate of polymerization of styrene, in words",[2]; same concentration of initiators and monomer,almost double
same,"effect of styrene on quantum yield of decomposition, in words",[3],Styrene drastically reduces the quantum yield of decomposition
same,relative quantum yield φrel of decomposition,[3]; styrene 1.09 M,0.25
same,relative quantum yield φrel of decomposition,[3]; styrene 2.19 M,0.20
same,relative quantum yield φrel of decomposition,[3]; styrene 3.28 M,0.14
same,relative quantum yield φrel of decomposition,[3]; styrene 4.37 M,0.12
same,relative quantum yield φrel of decomposition,[3]; styrene 8.73 M,very low
same,"total number of benzophenones as end groups per chain, in words",[4],one benzophenone end group
same,"end groups per chain, Benzophenone",[4]; [18],0.18
same,"end groups per chain, Benzophenone as ester",[4]; [18],0.52
same,"end groups per chain, Total",[4]; [18],0.70
same,"end groups per chain, Benzophenone",[4]; [19],0.13
same,"end groups per chain, Benzophenone as ester",[4]; [19],0.68
same,"end groups per chain, Total",[4]; [19],0.81
same,"end groups per chain, Benzophenone",[4]; [20],0.33
same,"end groups per chain, Benzophenone as ester",[4]; [20],0.73
same,"end groups per chain, Total",[4]; [20],1.06
same,"end groups per chain, Benzophenone",[4]; [21],0.18
same,"end groups per chain, Benzophenone as ester",[4]; [21],0.81
same,"end groups per chain, Total",[4]; [21],0.99
same,"end groups per chain, Benzophenone",[4]; [22],0.29
same,"end groups per chain, Benzophenone as ester",[4]; [22],0.62
same,"end groups per chain, Total",[4]; [22],0.91
same,"end groups per chain, Benzophenone",[4]; [23],0.34
same,"end groups per chain, Benzophenone as ester",[4]; [23],0.71
same,"end groups per chain, Total",[4]; [23],1.05
same,"total number of benzophenones as end groups per chain, in words",[4]; listed as Perester,almost unity
